Here are results for ten compounds from patent US8101621B2, “Aminopyridine derivatives having aurora a selective inhibitory action” (MSD K.K., priority 2006, dated 2012).

Values joined by “and” are separate entries in the source; they are usually repeats but may differ in a detail not shown here. Identical values can stand only once. Counter-ions that a name gives are not always drawn.

One assay addresses T1, Aurora B (Homo sapiens, UniProt Q96GD4).
T1 construct: histidine tag (N); made in house; host or cells: Escherichia coli BL21-CodonPlus (DE3)-RIL
The assay is described as follows: Aurora B inhibitory action (Kemptide substrate, [γ-33P]ATP, 100 μM ATP). The format is biochemical. Conditions: 30° C., 20 minutes. An excerpt: cDNA of Aurora B having histidine tag fused at the amino terminal was integrated into an expression vector, which was then highly expressed in Escherichia coli BL21-CodonPlus (DE3)-RIL cells. The Escherichia coli cells were recovered and solubilized, and then the histidine-tagged Aurora A protein was adsorbed onto a nickel chelate column and eluted from the column with imidazole. The active fraction was desalted with a desalting column to give a pure enzyme.
For measurement of the activity of Aurora B, the substrate used was Kemptide (Leu-Arg-Arg-Ala-Ser-Leu-Gly) (SEQ.ID.NO.: 1), a synthetic peptide purchased from Sigma-Aldrich, Inc. [Certificate of analysis (Upstate, Inc.)].
Reaction was conducted by a partial modification of the method of activity measurement for Aurora A. The amount of the reaction liquid was 21.1 μL, and the composition of the reaction buffer (R2 buffer) was 50 mM Tris-hydrochloride buffer (pH 7.4)/15 mM magnesium acetate/0.2 mM ethylenediamine-N,N,N′,N′-tetraacetate (EDTA). To this, purified Aurora B, 100 μM of a substrate peptide, 100 μM of unlabeled adenosine triphosphate (ATP) and 1 μCi of [γ-^33P] labeled ATP (2,500 Ci/mmole or more) were added, and the mixture was reacted at 30° C. for 20 minutes. Then, 10 μL of 350 mM phosphate buffer was added to the reaction system to stop the reaction. The substrate peptide was adsorbed on a P81 paper filter 96-well plate and then washed with 130 mM phosphate buffer for several times. The radiation activity of the peptide was measured with a liquid scintillation counter. The [γ-^33P] labeled ATP was purchased from Amersham Biosciences Co., Ltd.
(§1) The compound to be tested was added to the reaction system such that a dilution series of the compound in dimethylsulfoxide was first prepared, and 1.1 μL of this solution was added. A control was provided by adding 1.1 μL of DMSO to the reaction system.

Assay [1] concerns Human cervical cancer cells (HeLa S3). The assay is described as follows: Cell growth inhibitory effect, WST-8 method. Format: cell-based. Conditions: 72 h, HeLa S3, three days incubation. As for the experimental part: Fetal calf serum (FCS) was purchased from Moregate Biotech, and DMEM medium was purchased from Invitrogen Corp. WST-8 was purchased from Kishida Chemical Co., Ltd.
(§2) Human cervical cancer cells (HeLa S3) were obtained from the American Type Culture Collection (ATCC).
Cells were suspended in a DMEM medium containing 10% FCS, and the cell suspension was dispensed to a 96-well plastic plate at a rate of 750 cells/100 microliters per well. The plate was incubated overnight in 5% CO2-95% air at 37° C. A drug was subjected to graded dilution in dimethylsulfoxide and further diluted with a DMEM medium containing 10% FCS. Then, the dilution was dispensed to the plate on which cells had been disseminated, at a rate of 100 microliters per well. The plate was incubated for further three days in 5% CO2-95% air at 37° C. Cell growth after incubation was measured by the WST-8 method (H. Tominaga, et al., Anal. Commun., 36, 47-50 (1999)). Here, the WST-8 method refers to a method in which 20 microliters of a WST-8 reagent solution is added to each well, incubation is conducted at 37° C. for 45 minutes, the plate is stirred, and the amount of formazan produced is measured by a calorimetric method to determine the inhibitory rate of the drug. The concentration for 50% growth inhibition (EC50, μM) of the compound was determined.

For assay [2] the test system is unchanged. Kind of assay: Effect by combined use with paclitaxel in cells, WST-8 method. The format is cell-based. Particulars: three days, DMSO = 0%; for Cell growth inhibitory effect by combined administration of paclitaxel and the compound of Example (%): HeLa S3, compound 1.0 μM + paclitaxel 1 nM; for inhibition at 1 µM: HeLa S3, compound 1.0 μM alone, read-out: Cell growth inhibitory effect by sole administration of the compound of Example (%). The procedure:
Fetal calf serum (FCS) was purchased from Moregate Biotech, DMEM medium from Invitrogen Corp., paclitaxel (tradename: Taxol) from Sigma-Aldrich, Inc., and WST-8 from Kishida Chemical Co., Ltd.
as §2
Cells were suspended in a DMEM medium containing 10% FCS, and the cell suspension was dispensed to two 96-well plastic plates at a rate of 750 cells/100 microliters per well. The plates were incubated overnight in 5% CO2-95% air at 37° C. A drug was subjected to graded dilution in dimethylsulfoxide and further diluted with […] a DMEM medium containing 10% FCS and also containing 2 nM paclitaxel. Then, the dilutions were each dispensed to one of the plates on which cells had been disseminated, at a rate of 100 microliters per well. The final concentration of paclitaxel at this stage was 1 nM. Also, the concentrations in the case of sole administration of the compound according to the invention were 0.03, 0.1, 0.3, 1 and 3 μM. The plates were incubated for further three days in 5% CO2-95% air at 37° C. Cell growth after incubation was measured by the WST-8 method (H. Tominaga, et al., Anal. Commun., 36, 47-50 (1999)). Here, the WST-8 method refers to a method in which 20 microliters of a WST-8 reagent solution is added to each well, incubation is conducted at 37° C. for 45 minutes, the plate is stirred, and the amount of formazan produced is measured by a colorimetric method to determine the inhibitory rate of the drug. The growth inhibitory effects of paclitaxel and of the compound according to the invention were determined, with the value obtained in sole treatment of DMSO being defined as 0%.

The target of another assay is T2, Aurora A (Homo sapiens, UniProt O14965).
T2 construct: histidine tag (N); made in house; host or cells: Escherichia coli BL21-CodonPlus (DE3)-RIL
T2 sequence (O14965 1-403): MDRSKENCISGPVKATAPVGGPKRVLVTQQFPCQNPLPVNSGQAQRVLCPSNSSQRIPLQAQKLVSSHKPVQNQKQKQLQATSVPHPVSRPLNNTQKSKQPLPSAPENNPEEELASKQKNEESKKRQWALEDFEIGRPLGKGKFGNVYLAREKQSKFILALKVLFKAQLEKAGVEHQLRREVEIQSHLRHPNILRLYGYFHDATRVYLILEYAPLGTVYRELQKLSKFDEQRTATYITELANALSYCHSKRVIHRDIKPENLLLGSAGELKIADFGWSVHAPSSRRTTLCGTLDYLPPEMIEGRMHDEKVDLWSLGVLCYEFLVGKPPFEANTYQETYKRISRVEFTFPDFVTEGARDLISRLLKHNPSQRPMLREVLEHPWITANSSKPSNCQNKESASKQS
The assay is described as follows: Aurora A inhibitory action (Kemptide substrate, [γ-33P]ATP, 20 μM ATP). The format is biochemical. Particulars: 30° C., 20 minutes.
Excerpt: cDNA of Aurora A having histidine tag fused at the amino terminal was integrated into an expression vector, which was then highly expressed in Escherichia coli BL21-CodonPlus (DE3)-RIL cells. The Escherichia coli cells were recovered and solubilized, and then the histidine-tagged Aurora A protein was adsorbed onto a nickel chelate column and eluted from the column with imidazole. The active fraction was desalted with a desalting column to give a pure enzyme.
For measurement of the activity of Aurora A, the substrate used was Kemptide (Leu-Arg-Arg-Ala-Ser-Leu-Gly) (SEQ.ID.NO.: 1), a synthetic peptide purchased from Sigma-Aldrich, Inc. [Certificate of analysis (Upstate, Inc.)].
Reaction was conducted by a partial modification of a method by Upstate, Inc. [Kinase Profiler™ Assay Protocols]. The amount of the reaction liquid was 21.1 μL, and the composition of the reaction buffer (R2 buffer) was 50 mM Tris-hydrochloride buffer (pH 7.4)/15 mM magnesium acetate/0.2 mM ethylenediamine-N,N,N′,N′-tetraacetate (EDTA). To this, purified Aurora A, 100 μM of a substrate peptide, 20 μM of unlabeled adenosine triphosphate (ATP) and 0.5 μCi of [γ-^33P] labeled ATP (2,500 Ci/mmole or more) were added, and the mixture was reacted at 30° C. for 20 minutes. Then, 10 μL of 350 mM phosphate buffer was added to the reaction system to stop the reaction. The substrate peptide was adsorbed on a P81 paper filter 96-well plate and then washed with 130 mM phosphate buffer for several times. The radiation activity of the peptide was measured with a liquid scintillation counter. The [γ-^33P] labeled ATP was purchased from Amersham Biosciences Co., Ltd.
as §1

T1 sequence (Q96GD4 whole entry): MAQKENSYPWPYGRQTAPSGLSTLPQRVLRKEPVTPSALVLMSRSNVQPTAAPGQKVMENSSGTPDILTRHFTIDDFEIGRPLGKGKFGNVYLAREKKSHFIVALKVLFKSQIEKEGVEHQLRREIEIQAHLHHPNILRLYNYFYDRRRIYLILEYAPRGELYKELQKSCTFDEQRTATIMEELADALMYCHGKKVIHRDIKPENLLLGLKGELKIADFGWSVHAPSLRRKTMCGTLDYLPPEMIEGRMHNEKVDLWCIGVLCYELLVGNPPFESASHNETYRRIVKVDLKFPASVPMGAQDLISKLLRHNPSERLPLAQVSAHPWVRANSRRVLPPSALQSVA

As for `Cc1cc(Nc2cc[nH]n2)nc(CN2C[C@@H]3C[C@H]2CN3C(=O)c2cccc(Cl)c2F)n1` [Example 1, 2-(((1S,4S)-5-(3-chloro-2-fluorobenzoyl)-2,5-diazabicyclo[2.2.1]hept-2-yl)methyl)-6-methyl-N-1H-pyrazol-3-ylpyrimidine-4-amine], the figures for the IC50 (on Aurora B; in assay [1]; at Aurora A) were 640 nM, 5080 nM and 3 nM, respectively. The “Cell growth inhibitory effect by combined administration of paclitaxel and the compound of Example (%)” value (“Cell growth inhibitory effect … of Example (%)” for short) in assay [2] is 83.0%. Also, the inhibition at 1 µM in assay [2] (Homo sapiens, HeLa S3, 72 h) worked out at 14.3%.

Consider `O=C(c1cccc(C(F)(F)F)c1F)N1C[C@@H]2C[C@H]1CN2Cc1nccc(Nc2cc[nH]n2)n1` [Example 6, 2-(((1S,4S)-5-(2-fluoro-3-(trifluoromethyl)benzoyl)-2,5-diazabicyclo[2.2.1]hept-2-yl)methyl)-N-1H-pyrazol-3-ylpyrimidine-4-amine], for which the IC50 against Aurora B stood at 2800 nM; in assay [1], 9750 nM; against Aurora A it was 6.1 nM. In addition, the “Cell growth inhibitory effect … of Example (%)” value in assay [2] is reported as 71.7%. Further, in assay [2] (Homo sapiens, HeLa S3, 72 h), the inhibition at 1 µM came to 1.7%.

As for `Cc1cc(Nc2cc(C)[nH]n2)nc(CN2C[C@@H]3C[C@H]2CN3C(=O)c2cccc(Cl)c2F)n1` [Example 7], the half-maximal inhibitory concentration (IC50) turned out to be 300 nM against Aurora B and 5.7 nM against Aurora A.

Take `Cc1cc(Nc2ccnc(CN3C[C@@H]4C[C@H]3CN4C(=O)c3cccc(Cl)c3F)n2)n[nH]1` [Example 9, 2-(((1S,4S)-5-(3-chloro-2-fluorobenzoyl)-2,5-diazabicyclo[2.2.1]hept-2-yl)methyl)-N-(5-methyl-1H-pyrazol-3-yl)pyrimidine-4-amine]: the half-inhibitory concentration (IC50) was 690 nM on Aurora B and 9.8 nM against Aurora A. Besides, in assay [2], the “Cell growth inhibitory effect … of Example (%)” value worked out at 79.5%. The inhibition at 1 µM in assay [2] (Homo sapiens, HeLa S3, 72 h) stood at 12.4%.

`O=C(c1cccc(Cl)c1Cl)N1C[C@@H]2C[C@H]1CN2Cc1cncc(Nc2cc[nH]n2)n1` [Example 10, 6-(((1S,4S)-5-(2,3-dichlorobenzoyl)-2,5-diazabicyclo[2.2.1]hept-2-yl)methyl)-N-1H-pyrazol-3-ylpyrazine-2-amine trifluoroacetate]: the IC50 at Aurora B was found to be 2100 nM; in assay [1] it was 4600 nM; against Aurora A, 7.1 nM. Further, in assay [2], the “Cell growth inhibitory effect … of Example (%)” value was found to be 84.8%. In addition, the inhibition at 1 µM in assay [2] (Homo sapiens, HeLa S3, 72 h) worked out at 8.9%.

As for `O=C(c1cccc(C(F)(F)F)c1Cl)N1C[C@H]2C[C@@H]1CN2Cc1cncc(Nc2cc[nH]n2)n1` [Example 12], the figures for the IC50 at Aurora B and against Aurora A were 2300 nM and 4.8 nM, respectively.

`CN(C)C(=O)c1cc(CN2C[C@@H]3C[C@H]2CN3C(=O)c2cccc(C(F)(F)F)c2F)nc(Nc2nccs2)c1` [Example 22, 2-(((1S,4S)-5-(2-fluoro-3-(trifluoromethyl)benzoyl)-2,5-diazabicyclo[2.2.1]hept-2-yl)methyl)-N,N-dimethyl-6-(1,3-thiazol-2-ylamino)isonicotinamide trifluoroacetate]: the concentration for half-maximal inhibition (IC50) turned out to be 590 nM against Aurora B and 1.4 nM against Aurora A.

On to `CN(C)C(=O)c1cc(CN2C[C@@H]3C[C@H]2CN3C(=O)c2cccc(Cl)c2C#N)nc(Nc2nccs2)c1` [Example 23, 2-(((1S,4S)-5-(3-chloro-2-cyanobenzoyl)-2,5-diazabicyclo[2.2.1]hept-2-yl)methyl)-N,N-dimethyl-6-(1,3-thiazol-2-ylamino)isonicotinamide trifluoroacetate], for which the IC50 at Aurora B stood at 330 nM; on Aurora A it was 1.4 nM.

For `CN(C)C(=O)c1cc(CN2C[C@@H]3C[C@H]2CN3C(=O)c2cccc(C(F)(F)F)c2C#N)nc(Nc2nccs2)c1` [Example 24, 2-(((1S,4S)-5-(2-cyano-3-(trifluoromethyl)benzoyl)-2,5-diazabicyclo[2.2.1]hept-2-yl)methyl)-N,N-dimethyl-6-(1,3-thiazol-2-ylamino)isonicotinamide], the values for the IC50 against Aurora B and at Aurora A were 190 nM and 1.1 nM, respectively.

As to `CC(=O)O[C@H]1C(=O)[C@@]2(C)[C@H]([C@H](OC(=O)c3ccccc3)[C@]3(O)C[C@H](OC(=O)[C@H](O)[C@@H](NC(=O)c4ccccc4)c4ccccc4)C(C)=C1C3(C)C)[C@]1(OC(C)=O)CO[C@@H]1C[C@@H]2O` [paclitaxel, reference compound], the “Cell growth inhibitory effect by sole administration of paclitaxel (1 nM) (%)” value in assay [2] (HeLa S3, paclitaxel 1 nM alone) is 47.1% and 51.4%. Further, the inhibition at 0.001 µM in assay [2] (Homo sapiens, HeLa S3, 72 h, HeLa S3, paclitaxel 1 nM alone, read-out: Cell growth inhibitory effect by sole administration of paclitaxel (1 nM) (%)) was 47.2%.
